In ChEMBL document CHEMBL1146692, “Highly potent PDE4 inhibitors with therapeutic potential” (Bioorg Med Chem Lett, 2004):

Legend:
Rattus norvegicus [1] = experiment: Inhibition of LPS-induced TNF-alpha production in rats 0.5 hr after peroral administration; assay type: functional; settings: po, read-out: ID50 (the source's name)
Phosphodiesterase 4 = Phosphodiesterase 4 (Homo sapiens, UniProt P27815+Q08499+Q07343+Q08493); experiment: Inhibition of phosphodiesterase 4 (PDE4) prepared from human U937 cells; assay type: cell-based; settings: u-937
Rattus norvegicus [2] = experiment: Inhibition of LPS-induced TNF-alpha production in rats at 3 mg/kg peroral dose after 0.5 hr; assay type: functional; settings: route oral
Cavia porcellus [3] = experiment: Inhibition of SRS-A-mediated bronchoconstriction and airway microvascular leakage in sensitized guinea pigs at 0.5 mg/kg 1 hr after oral dose; assay type: functional; settings: Lung, read-out: ID50 (the source's name)
Homo sapiens = species: Homo sapiens; experiment: Inhibition of LPS-induced TNF-alpha production in human whole blood; assay type: functional, organism-based
Rattus norvegicus [4] = experiment: Inhibition of gastric emptying in rats after peroral administration; assay type: functional; settings: Stomach, po, read-out: ID50 (the source's name)
Rattus norvegicus [5] = experiment: Inhibition of LPS-induced TNF-alpha production in rats at 1 mg/kg peroral dose after 0.5 hr; assay type: functional; settings: route oral
Cavia porcellus [6] = experiment: Inhibition of SRS-A-mediated bronchoconstriction and airway microvascular leakage in sensitized guinea pigs at 0.15 mg/kg 1 hr after oral dose; assay type: functional; settings: Lung, read-out: ID50 (the source's name)

Compound: COc1ccc(C2(C#N)CCN(CC(=O)NO)CC2)cc1OC1CCC1
- ED50 (Rattus norvegicus [1]): 0.03 mg/kg
- IC50 (Phosphodiesterase 4): 0.18 nM

Compound: CCOc1ccc(C2(C#N)CCN(CC(=O)O)CC2)cc1OC1CCCC1
- IC50 (Phosphodiesterase 4): 2500 nM

Compound: CC(C)Oc1ccc(C2(C#N)CCN(CC(=O)NO)CC2)cc1OC1CCCC1
- IC50 (Phosphodiesterase 4): > 30 nM

Compound: COc1ccc(C2(C#N)CCN([C@H](C)C(=O)NO)CC2)cc1OC1CCCC1
- IC50 (Phosphodiesterase 4): 0.91 nM
- inhibition in vivo at 3 mg/kg (Rattus norvegicus [2]): 26%

Compound: COc1ccc(C2(C#N)CCN([C@H](C)C(=O)O)CC2)cc1OC1CCCC1
- IC50 (Phosphodiesterase 4): > 300 nM

Compound: COc1ccc(C2(C#N)CCN(CC(=O)O)CC2)cc1OC1CCC1
- IC50 (Phosphodiesterase 4): > 100 nM

Compound: COc1ccc(C2(C#N)CCN(CC(=O)O)CC2)cc1OC1CCCC1
- IC50 (Phosphodiesterase 4): 66 nM
- inhibition in vivo at 3 mg/kg (Rattus norvegicus [2]): 74%

Compound: CCOc1ccc(C2(C#N)CCN(CC(=O)NO)CC2)cc1OC1CCCC1
- ED50 (Rattus norvegicus [1]): 0.7 mg/kg
- IC50 (Phosphodiesterase 4): 6.2 nM

Compound: CC(C)Oc1ccc(C2(C#N)CCN(CC(=O)O)CC2)cc1OC1CCCC1
- IC50 (Phosphodiesterase 4): > 1000 nM

Compound: N#CC1(c2ccc(OC(F)F)c(OC3CCCC3)c2)CCN(CC(=O)O)CC1
- ED50 (Cavia porcellus [3]): 4.2 mg/kg
- ED50 (Rattus norvegicus [1]): 1.1 mg/kg
- IC50 (Homo sapiens): 840 nM
- ED50 (Rattus norvegicus [4]): 4.7 mg/kg
- IC50 (Phosphodiesterase 4): 65 nM

Compound: COc1ccc(C2(C#N)CCN(CC(=O)NO)CC2)cc1OC(C)C
- ED50 (Rattus norvegicus [1]): 0.09 mg/kg
- IC50 (Phosphodiesterase 4): 1 nM

Compound: COc1ccc(C2(C#N)CCN(C(C)(C)C(=O)O)CC2)cc1OC1CCCC1
- IC50 (Phosphodiesterase 4): > 1000 nM

Compound: COc1ccc(C2(C#N)CCN(C3(C(=O)O)CC3)CC2)cc1OC1CCCC1
- IC50 (Phosphodiesterase 4): > 1000 nM

Compound: COc1ccc(C2(C#N)CCN([C@@H](C)C(=O)NO)CC2)cc1OC1CCCC1
- IC50 (Phosphodiesterase 4): 5.9 nM
- inhibition in vivo at 3 mg/kg (Rattus norvegicus [2]): 49%

Compound: COc1ccc(C2(C#N)CCN([C@@H](C)C(=O)O)CC2)cc1OC1CCCC1
- IC50 (Phosphodiesterase 4): > 300 nM

Compound: COc1ccc(C2(C#N)CCN(CC(=O)O)CC2)cc1OCC1CC1
- inhibition in vivo at 1 mg/kg (Rattus norvegicus [5]): 12%
- IC50 (Phosphodiesterase 4): > 100 nM

Compound: COc1ccc(C2(C#N)CCN(CC(=O)O)CC2)cc1OC1Cc2ccccc2C1
- IC50 (Phosphodiesterase 4): 67 nM
- inhibition in vivo at 3 mg/kg (Rattus norvegicus [2]): 29%

Compound: COc1ccc(C2(C#N)CCN(C3(C(=O)NO)CC3)CC2)cc1OC1CCCC1
- ED50 (Rattus norvegicus [1]): 2 mg/kg
- IC50 (Phosphodiesterase 4): 4.6 nM

Compound: COc1ccc(C2(C#N)CCN(CC(=O)NO)CC2)cc1OCC1CC1
- ED50 (Rattus norvegicus [1]): 0.03 mg/kg
- IC50 (Homo sapiens): 2.1 nM
- ED50 (Cavia porcellus [6]): 0.3 mg/kg
- ED50 (Rattus norvegicus [4]): 0.3 mg/kg
- IC50 (Phosphodiesterase 4): 0.29 nM

Compound: CCOc1cc(C2(C#N)CCN(CC(=O)NO)CC2)ccc1OC
- ED50 (Rattus norvegicus [1]): 0.04 mg/kg
- IC50 (Homo sapiens): 5 nM
- ED50 (Cavia porcellus [6]): 0.04 mg/kg
- ED50 (Rattus norvegicus [4]): 0.7 mg/kg
- IC50 (Phosphodiesterase 4): 0.52 nM

Compound: COc1ccc(C2(C#N)CCN(CC(=O)O)CC2)cc1OC(C)C
- IC50 (Phosphodiesterase 4): > 100 nM

Compound: N#CC1(c2ccc(OC(F)F)c(OC3CCCC3)c2)CCN(CC(=O)NO)CC1
- ED50 (Rattus norvegicus [1]): 0.02 mg/kg
- IC50 (Phosphodiesterase 4): 0.051 nM

Compound: COc1ccc(C2(C#N)CCN(CC(=O)O)CC2)cc1OC
- IC50 (Phosphodiesterase 4): > 100 nM

Compound: COc1ccc(C2(C#N)CCN(C(C)(C)C(=O)NO)CC2)cc1OC1CCCC1
- IC50 (Phosphodiesterase 4): 34 nM

Compound: COc1ccc(C2(C#N)CCN(CC(=O)NO)CC2)cc1OC
- ED50 (Rattus norvegicus [1]): 0.23 mg/kg
- IC50 (Phosphodiesterase 4): 4.7 nM

Compound: COc1ccc(C2(C#N)CCN(CC(=O)NO)CC2)cc1OC1CCCC1
- ED50 (Rattus norvegicus [1]): 0.04 mg/kg
- IC50 (Homo sapiens): 8.9 nM
- ED50 (Cavia porcellus [6]): 0.3 mg/kg
- ED50 (Rattus norvegicus [4]): 0.3 mg/kg
- IC50 (Phosphodiesterase 4): 0.08 nM

Compound: CCOc1cc(C2(C#N)CCN(CC(=O)O)CC2)ccc1OC
- inhibition in vivo at 1 mg/kg (Rattus norvegicus [5]): 0%
- IC50 (Phosphodiesterase 4): > 100 nM

Compound: COc1ccc([C@]2(C#N)CC[C@@H](C(=O)O)CC2)cc1OC1CCCC1 [CILOMILAST]
- ED50 (Rattus norvegicus [1]): 1.7 mg/kg
- ED50 (Cavia porcellus [6]): 4.5 mg/kg
- ED50 (Rattus norvegicus [4]): 5.7 mg/kg
